Data: ChEMBL document CHEMBL1123972, “Drug-induced modifications of the immune response. 12. 4,5-Dihydro-4-oxo-2-(substituted amino)-3-furancarboxylic acids and derivatives as novel antiallergic agents” (1988)
Structures can show the parent of a compound that is named as a salt.

Experiments:
Type in all cases: functional
Rattus norvegicus [1] = experiment: Antiallergic activity evaluated as percent inhibition at intraperitoneal dose of 100 mg/kg in rats; details: for inhibition in vivo at 100 mg/kg: Rattus norvegicus, ip
Rattus norvegicus [2] = experiment: Inhibition of bradykinin-induced dermal vascular permeability in rats at a peroral dose of 100 mg/kg 1 hr prior to challenge; details: route oral
Rattus norvegicus [3] = experiment: Inhibition of serotonin -induced dermal vascular permeability in rats at a peroral dose of 100 mg/kg 1 hr prior to challenge; details: route oral
Rattus norvegicus [4] = experiment: Inhibition of histamine -induced dermal vascular permeability in rats at a peroral dose of 100 mg/kg 1 hr prior to challenge; details: route oral
Rattus norvegicus [5] = experiment: Antiallergic activity of edema in the active anaphylaxis assay at a intraperitoneal dose of 100 mg/kg in rats; set-up: unit not given here
Rattus norvegicus [6] = experiment: Inhibition of bradykinin-induced dermal vascular permeability in rats at a intraperitoneal dose of 100 mg/kg 1 hr prior to challenge; details: ip
Rattus norvegicus [7] = experiment: Inhibition of histamine -induced dermal vascular permeability in rats at a intraperitoneal dose of 100 mg/kg 1 hr prior to challenge; details: ip
Rattus norvegicus [8] = experiment: Inhibition of serotonin -induced dermal vascular permeability in rats at a intraperitoneal dose of 100 mg/kg 1 hr prior to challenge; details: ip
Rattus norvegicus [9] = experiment: Antiallergic activity evaluated as percent inhibition at peroral dose of 100 mg/kg in rats; details: route oral
Rattus norvegicus [10] = experiment: Antiallergic activity of edema in the active anaphylaxis assay at a peroral dose of 100 mg/kg in rats; details: route oral

| SMILES | inhibition in vivo at 100 mg/kg (Rattus norvegicus [1]) | Activity (Rattus norvegicus [5]) | inhibition in vivo at 100 mg/kg (Rattus norvegicus [6]) | inhibition in vivo at 100 mg/kg (Rattus norvegicus [7]) | inhibition in vivo at 100 mg/kg (Rattus norvegicus [8]) | further results |
| --- | --- | --- | --- | --- | --- | --- |
| O=C(O)C1=C(Nc2ccc(Br)cc2)OCC1=O | 27% | 3.24 | – | – | – | inhibition in vivo at 100 mg/kg (Rattus norvegicus [2]): 68%; inhibition in vivo at 100 mg/kg (Rattus norvegicus [3]): 39%; inhibition in vivo at 100 mg/kg (Rattus norvegicus [4]): 45% |
| Cc1ccccc1NC(=O)C1=C(Nc2ccccc2C)OCC1=O | – | – | 7% | 0% | 9% | – |
| COc1ccccc1NC(=O)C1=C(Nc2ccccc2OC)OCC1=O | – | – | 39% | 1% | 18% | – |
| O=C1COC(Nc2ccc(Cl)cc2)=C1C(=O)Nc1ccc(Cl)cc1 | – | – | 44% | 15% | 14% | – |
| CC1(C)OC(Nc2ccccc2)=C(C(=O)O)C1=O | 44% | 1.95 | – | – | – | – |
| O=C(O)C1=C(Nc2cccc3ccccc23)OCC1=O | 64% | 1.2 | – | – | – | – |
| CCOC(=O)C1=C(Nc2cccc(C(F)(F)F)c2)OCC1=O | – | – | – | – | – | inhibition in vivo at 100 mg/kg (Rattus norvegicus [2]): 40%; inhibition in vivo at 100 mg/kg (Rattus norvegicus [3]): 9.7%; inhibition in vivo at 100 mg/kg (Rattus norvegicus [4]): 4.1% |
| O=C(O)C1=C(NC2CC2c2ccc(Cl)cc2)OCC1=O (stereo unspecified) | 6% | 4.1 | 71% | 56% | 54% | – |
| CCOC(=O)C1=C(NC2CC2c2ccccc2)OCC1=O (stereo unspecified) | – | – | – | – | – | inhibition in vivo at 100 mg/kg (Rattus norvegicus [2]): 59%; inhibition in vivo at 100 mg/kg (Rattus norvegicus [3]): 57%; inhibition in vivo at 100 mg/kg (Rattus norvegicus [4]): 35% |
| COc1ccc(NC(=O)C2=C(Nc3ccc(OC)cc3)OCC2=O)cc1 | – | – | 39% | 8% | 13% | – |
| O=C([O-])C1=C(NC2CC2c2ccccc2)OCC1=O.[Na+] (stereo unspecified) | 22% | 3.72 | – | – | – | – |
| Cn1c(=O)c2nc[nH]c2n(C)c1=O.O [THEOPHYLLINE] | – | – | – | – | – | inhibition in vivo at 100 mg/kg (Rattus norvegicus [9]): 66%; Activity (Rattus norvegicus [10]): 3.75 |
| CCOC(=O)C1=C(Nc2ccc(Cl)cc2)OCC1=O | – | – | – | – | – | inhibition in vivo at 100 mg/kg (Rattus norvegicus [2]): 9.5%; inhibition in vivo at 100 mg/kg (Rattus norvegicus [3]): 6.6%; inhibition in vivo at 100 mg/kg (Rattus norvegicus [4]): 3.3% |
| O=C(O)C1=C(Nc2ccccc2)OCC1=O | – | 0.47 | – | – | – | Inhibition (Rattus norvegicus [1]): 81% |
| COc1ccccc1NC1=C(C(=O)O)C(=O)CO1 | 45% | 3.45 | – | – | – | inhibition in vivo at 100 mg/kg (Rattus norvegicus [2]): 38%; inhibition in vivo at 100 mg/kg (Rattus norvegicus [3]): 30%; inhibition in vivo at 100 mg/kg (Rattus norvegicus [4]): 27% |
| CCOC(=O)C1=C(NC2CC2c2ccc(Cl)cc2)OCC1=O (stereo unspecified) | – | – | 76% | 60% | 51% | – |
| O=C(O)C1=C(Nc2cccc([N+](=O)[O-])c2)OCC1=O | 39% | 7.29 | 48% | 16% | 18% | – |
| CCOC(=O)C1=C(NC)OCC1=O | – | – | 25% | 50% | 38% | – |
| CCOC(=O)C1=C(Nc2ccccc2)OC(C)(C)C1=O | 16% | 7.71 | – | – | – | – |
| O=C(O)C1=C(Nc2cccc(C(F)(F)F)c2)OCC1=O | 45% | 3.35 | – | – | – | inhibition in vivo at 100 mg/kg (Rattus norvegicus [2]): 54%; inhibition in vivo at 100 mg/kg (Rattus norvegicus [3]): 40%; inhibition in vivo at 100 mg/kg (Rattus norvegicus [4]): 26% |
| CCOC(=O)C1=C(Nc2ccccc2)OC(C)C1=O (stereo unspecified) | 61% | 1.44 | 46% | 40% | 37% | – |
| CN1CCC(=C2c3ccccc3C=Cc3ccccc32)CC1 [CYPROHEPTADINE HYDROCHLORIDE] | – | – | 23% | 93% | 93% | – |
| O=C1COC(Nc2ccccc2)=C1C(=O)Nc1ccccc1 | 46% | 2.45 | – | – | – | – |
| Cc1ccc(C2CC2NC2=C(C(=O)O)C(=O)CO2)cc1 (stereo unspecified) | 45% | 1.58 | 100% | 100% | 100% | – |
| CC1OC(Nc2ccccc2)=C(C(=O)O)C1=O (stereo unspecified) | 60% | 2 | – | – | – | – |
| CCOC(=O)C1=C(Nc2ccc(C(=O)OCC)cc2)OCC1=O | – | – | – | – | – | inhibition in vivo at 100 mg/kg (Rattus norvegicus [2]): 21%; inhibition in vivo at 100 mg/kg (Rattus norvegicus [3]): 18%; inhibition in vivo at 100 mg/kg (Rattus norvegicus [4]): 21% |
| O=C([O-])C1=C(Nc2ccccc2)OCC1=O.[Na+] | – | 2.75 | – | – | – | Inhibition (Rattus norvegicus [1]): 17% |
| O=C(O)C1=C(Nc2ccc(C(=O)O)cc2)OCC1=O | 52% | 2 | 64% | 64% | 63% | – |
